Assay results reported in patent US20250311727A1, “SUBSTITUTED 2-AMINOAZINES AND SALTS THEREOF, AND USE THEREOF AS HERBICIDAL ACTIVE SUBSTANCES” (BAYER AKTIENGESELLSCHAFT, priority 2022, published 2025).

Legend:
Format in all cases: in vivo
Setaria viridis [1] = assay: Post-emergence herbicidal efficacy at 80 g/ha, SETVI; settings: rated visually after about 3 weeks vs untreated controls, 100% = plants have died
Excerpt: (§1) Unwanted plants/weeds: • ABUTH: Abutilon theophrasti • ALOMY: Alopecurus myosuroides • AMARE: Amaranthus retroflexus • DIGSA: Digitaria sanguinalis • ECHCG: Echinochloa crus-galli • KCHSC: Kochia scoparia • LOLRI: Lolium rigidum • MATIN: Matricaria inodora • POAAN: Poa annua • POLCO: Polygonum convolvulus • SETVI: Setaria viridis • STEME: Stellaria media • VERPE: Veronica persica • VIOTR: Viola tricolor A. Post-Emergence Herbicidal Efficacy at 320 g/ha
(§2) Seeds of monocotyledonous and dicotyledonous weeds and crop plants were placed in sandy loam in plastic or organic planting pots, covered with soil and cultivated in a greenhouse under controlled growth conditions. 2 to 3 weeks after sowing, the test plants were treated at the one-leaf stage. The compounds of the invention, formulated in the form of wettable powders (WP) or as emulsion concentrates (EC), were then sprayed onto the green parts of the plants as aqueous suspension or emulsion with addition of 0.5% additive at a water application rate of 600 l/ha (converted). After the test plants had been kept in the greenhouse under optimum growth conditions for about 3 weeks, the activity of the preparations was rated visually in comparison to untreated controls. For example, 100% activity=the plants have died, 0% activity=like control plants.
(§3) Tables B1 to B11 below show the effects of selected compounds of the general formula (I) according to Table 1 on various harmful plants and an application rate corresponding to 80 g/ha, which were obtained by the experimental procedure mentioned above.

Veronica persica [2] = assay: Post-emergence herbicidal efficacy at 80 g/ha, VERPE; settings: rated visually after about 3 weeks vs untreated controls, 100% = plants have died
Summary of the method: (§4)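 Greenhouse post-emergence spray, one-leaf stage (2–3 wk after sowing, sandy loam). Cpd as WP/EC, aqueous + 0.5% additive, 600 l/ha water. Visual rating ~3 wk post-treatment vs untreated; 0% = as control, 100% = plants dead.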

Viola tricolor [3] = assay: Pre-emergence herbicide efficacy at 80 g/ha, VIOTR
Summary of the method: (§5)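 Visual scoring after about 3 weeks in the greenhouse, expressed as percent activity against untreated controls, where 100% means dead plants and 0% means no difference. Treatment was applied pre-emergence to the covering soil over sown seeds, as WP or EC in water with 0.5% additive, 600 l/ha.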

Setaria viridis [4] = assay: Pre-emergence herbicide efficacy at 80 g/ha, SETVI
Summary of the method: as §5

Digitaria sanguinalis [5] = assay: Post-emergence herbicidal efficacy at 80 g/ha, DIGSA; settings: rated visually after about 3 weeks vs untreated controls, 100% = plants have died
Excerpt: as §1, §2, §3

Polygonum convolvulus = assay: Pre-emergence herbicide efficacy at 80 g/ha, POLCO; settings: scored visually after about 3 weeks vs untreated controls, 100% = plants have died
Summary of the method: as §5

Alopecurus myosuroides = assay: Pre-emergence herbicide efficacy at 80 g/ha, ALOMY; settings: scored visually after about 3 weeks vs untreated controls, 100% = plants have died
Excerpt: as §1
(§6) Seeds of monocotyledonous and dicotyledonous weed plants and crop plants were placed in plastic or organic planting pots and covered with soil. The compounds of the invention, formulated in the form of wettable powders (WP) or as emulsion concentrates (EC), were then applied to the surface of the covering soil as aqueous suspension or emulsion with addition of 0.5% additive at a water application rate equivalent to 600 l/ha. After the treatment, the pots were placed in a greenhouse and kept under good growth conditions for the test plants. After about 3 weeks, the efficacy of the preparations was scored visually in comparison with untreated controls as percentages. For example, 100% activity=the plants have died, 0% activity=like control plants.
(§7) Tables D1 to D12 below show the effects of selected compounds of the general formula (I) according to Table 1 on various harmful plants and an application rate corresponding to 80 g/ha, which were obtained by the experimental procedure mentioned above.

Echinochloa crus-galli [6] = assay: Pre-emergence herbicide efficacy at 80 g/ha, ECHCG; settings: scored visually after about 3 weeks vs untreated controls, 100% = plants have died
Summary of the method: as §5

Amaranthus retroflexus [7] = assay: Pre-emergence herbicide efficacy at 80 g/ha, AMARE; settings: scored visually after about 3 weeks vs untreated controls, 100% = plants have died
Summary of the method: as §5

Digitaria sanguinalis [8] = assay: Pre-emergence herbicide efficacy at 80 g/ha, DIGSA; settings: scored visually after about 3 weeks vs untreated controls, 100% = plants have died
Summary of the method: as §5

Viola tricolor [9] = assay: Post-emergence herbicidal efficacy at 80 g/ha, VIOTR; settings: rated visually after about 3 weeks vs untreated controls, 100% = plants have died
Summary of the method: as §4

Amaranthus retroflexus [10] = assay: Post-emergence herbicidal efficacy at 80 g/ha, AMARE; settings: rated visually after about 3 weeks vs untreated controls, 100% = plants have died
Summary of the method: as §4

Veronica persica [11] = assay: Pre-emergence herbicide efficacy at 80 g/ha, VERPE
Summary of the method: as §5

Kochia scoparia [12] = assay: Post-emergence herbicidal efficacy at 80 g/ha, KCHSC; settings: rated visually after about 3 weeks vs untreated controls, 100% = plants have died
Summary of the method: as §4

Echinochloa crus-galli [13] = assay: Post-emergence herbicidal efficacy at 80 g/ha, ECHCG; settings: rated visually after about 3 weeks vs untreated controls, 100% = plants have died
Excerpt: as §1, §2, §3

Kochia scoparia [14] = assay: Pre-emergence herbicide efficacy at 80 g/ha, KCHSC; settings: scored visually after about 3 weeks vs untreated controls, 100% = plants have died
Summary of the method: as §5

Lolium rigidum = assay: Pre-emergence herbicide efficacy at 80 g/ha, LOLRI; settings: scored visually after about 3 weeks vs untreated controls, 100% = plants have died
Excerpt: as §1
as §6, with “control plants. […]” for “control plants.”

Abutilon theophrasti [15] = assay: Post-emergence herbicidal efficacy at 80 g/ha, ABUTH; settings: rated visually after about 3 weeks vs untreated controls, 100% = plants have died
Excerpt: as §1, §2, §3

Abutilon theophrasti [16] = assay: Pre-emergence herbicide efficacy at 80 g/ha, ABUTH; settings: scored visually after about 3 weeks vs untreated controls, 100% = plants have died
Excerpt: as §1, §6, §7

Fc1cnc(Nc2cccc(Cl)c2-c2cc(C(F)F)no2)nc1 [Example 1-62]
Post-emergence efficacy at 80 g/ha against SETVI in % (Setaria viridis [1]): 100%
Post-emergence efficacy at 80 g/ha against VERPE in % (Veronica persica [2]): 100%
Pre-emergence efficacy against VIOTR (Viola tricolor [3]): 100%
Pre-emergence efficacy against SETVI (Setaria viridis [4]): 100%
Post-emergence efficacy at 80 g/ha against DIGSA in % (Digitaria sanguinalis [5]): 80%
Pre-emergence efficacy at 80 g/ha against POLCO in % (Polygonum convolvulus): 80%
Pre-emergence efficacy at 80 g/ha against ALOMY in % (Alopecurus myosuroides): 100%
Pre-emergence efficacy at 80 g/ha against ECHCG in % (Echinochloa crus-galli [6]): 100%
Pre-emergence efficacy at 80 g/ha against AMARE in % (Amaranthus retroflexus [7]): 100%
Pre-emergence efficacy at 80 g/ha against DIGSA in % (Digitaria sanguinalis [8]): 100%
Post-emergence efficacy at 80 g/ha against VIOTR in % (Viola tricolor [9]): 100%
Post-emergence efficacy at 80 g/ha against AMARE in % (Amaranthus retroflexus [10]): 100%
Pre-emergence efficacy against VERPE (Veronica persica [11]): 100%
Post-emergence efficacy at 80 g/ha against KCHSC in % (Kochia scoparia [12]): 100%
Post-emergence efficacy at 80 g/ha against ECHCG in % (Echinochloa crus-galli [13]): 80%
Pre-emergence efficacy at 80 g/ha against KCHSC in % (Kochia scoparia [14]): 100%
Pre-emergence efficacy at 80 g/ha against LOLRI in % (Lolium rigidum): 100%
Post-emergence efficacy at 80 g/ha against ABUTH in % (Abutilon theophrasti [15]): 90%
Pre-emergence efficacy at 80 g/ha against ABUTH in % (Abutilon theophrasti [16]): 100%
